From article PMC5871875 (Journal of medicinal chemistry, 2017)

Assays:
[1] = molecular target: T1, purified, active AEP (Homo sapiens, UniProt Q99538); experiment: SAR analysis: residual activity of purified, active AEP; conditions: 1 μM compound, 50 nM AEP, 5 μM substrate peptide
T1 sequence (Q99538 18-323 limits assumed): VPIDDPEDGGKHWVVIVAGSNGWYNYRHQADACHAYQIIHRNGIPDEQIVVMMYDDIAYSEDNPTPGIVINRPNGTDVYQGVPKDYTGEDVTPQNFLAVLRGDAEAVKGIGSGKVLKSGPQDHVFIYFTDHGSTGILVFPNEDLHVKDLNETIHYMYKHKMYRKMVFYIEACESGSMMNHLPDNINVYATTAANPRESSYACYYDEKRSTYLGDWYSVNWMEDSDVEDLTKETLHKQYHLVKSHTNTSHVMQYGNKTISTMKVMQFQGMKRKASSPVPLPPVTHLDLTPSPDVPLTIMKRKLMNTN

[2] = molecular target: cathepsin-L (Homo sapiens, UniProt P07711); experiment: Inhibition specificity assay, cathepsin-L; type: biochemical
Sequence of cathepsin-L (P07711 114-333, species assumed): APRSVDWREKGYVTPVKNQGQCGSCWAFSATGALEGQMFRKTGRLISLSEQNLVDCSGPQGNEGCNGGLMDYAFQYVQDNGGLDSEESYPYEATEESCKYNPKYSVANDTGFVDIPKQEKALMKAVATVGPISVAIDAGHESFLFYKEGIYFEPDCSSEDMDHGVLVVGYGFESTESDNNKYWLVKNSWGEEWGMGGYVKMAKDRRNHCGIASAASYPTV

[3] = molecular target: T2, AEP (Homo sapiens, UniProt Q99538); experiment: IC50 assay against pure AEP; type: biochemical
T2 sequence (Q99538 18-323 limits assumed): T1 sequence (Q99538 18-323 limits assumed)

[4] = Toxicity observations in treated tumor-bearing mice; type: in vivo, nude mice; conditions: 3 or 10 mg/kg oral, 42 days
[5] = system: endogenous MMP-2 cleavage; experiment: Gelatin zymography: endogenous MMP-2 cleavage in MDA-MB-231 cells; type: cell-based, human; conditions: MDA-MB-231, 1, 2, 5 and 10 μM
[6] = system: MDA-MB-231 cells; experiment: Cell proliferation/viability; type: cell-based, human; conditions: MDA-MB-231, doses of the MMP-2 cleavage experiment (1-10 μM)
[7] = system: MDA-MB-231 cells; experiment: In vivo spontaneous metastasis assay; design: species or system nude mice; conditions: 42 days
[8] = system: major cytochrome P450 isozymes; conditions: cited from earlier work
[9] = system: CaCo-2 cells; experiment: Caco-2 permeability assay; type: in vitro ADME
[10] = in the presence or absence of NADPH; cited from earlier work
[11] = molecular target: T2, AEP; experiment: Inhibition kinetics assay of AEP
[12] = molecular target: T2, AEP; experiment: Time course inactivation assay of AEP; type: biochemical; conditions: nonlinear progress curves

## Cn1c(=O)[nH]c(=O)c2c1nc(S)n2C[C@H](O)COc1ccccc1 [compound 38k]
[1]
  loss in activity relative to parent compound 38: > 2 fold

## Cn1c(=O)c2c(nc(S)n2C)n(C)c1=O [38p]
[2]
  inhibition of cathepsin-L: able to inhibit
[3]
  increased potency against AEP compared to compound 38: about 2 fold
[3]; 10 μM Cbz-Ala-Ala-Asn-AMC, 50 nM AEP
  IC50 against AEP: submicromolar

## CCn1c(=O)c2c(nc(S)n2C)n(C)c1=O [compound 38u]
[2]
  inhibition of cathepsin-L: able to inhibit
[4]
  complete blood count (CBC) versus vehicle: no significant difference
  pathological examination of major organs (kidney, liver, bone marrow): did not exhibit any significant amount of toxicity
  size of the liver versus vehicle: remained similar
  size of the spleen versus control: slight increase
  toxicity by body weight versus control: no significant toxicity
[5]
  endogenous MMP-2 cleavage: inhibited in a dose-dependent manner
[6]
  cell viability: not affected
[7]; 3 mg/kg oral gavage
  number of metastatic lung nodules: significantly decreased
[7]; 10 mg/kg oral gavage
  lung metastasis (nodules): almost completely prevented
[7]; 3 or 10 mg/kg oral, data not shown
  mammary tumor weight or volume versus control: no significant difference

## Cn1c(=O)[nH]c(=O)c2c1nc(S)n2CC(O)COc1ccc(Cl)cc1 (centres unmarked) [compound 38]
[8]
  inhibition of major cytochrome P450 isozymes: did not significantly inhibit
[9]
  Caco-2 cell permeability (in words): minimal
[10]
  stability in liver microsomes: stable
[11]
  mechanism of inhibition: competitively inhibits
[12]
  binding behaviour from time course inactivation: slow-binding inhibitor
